# Reference: patent publication US9090625B2, “Therapeutic pyrazolyl thienopyridines” (Thesan Pharmaceuticals, Inc., priority 2006, dated 2015)
# Tested on: Smad binding element (SBE) luciferase reporter activity in TGFβ1 stimulated NIH-3T3 cells
# Experiment: ALK-5 gene reporter assay: Smad binding element (SBE) luciferase reporter in TGFβ1 stimulated NIH-3T3 cells
# Settings: Mus musculus, NIH3T3
compound,measurement,value
"CCc1cnn(-c2cccc(C)n2)c1-c1cc2cnccc2s1 [Example 4, 2-[4-ethyl-1-(6-methylpyridin-2-yl)-1H-pyrazol-5-yl]thieno[3,2-c]pyridine]",IC50,21.5 nM
